Data taken from PubChem BioAssay AID1963863 (Molecular Pharmacology Branch, DTP, NCI, 2024).

System: 931267-113-T-J1-PDC KRAS spheroid with HUVEC/MSC, viability
Assay: Anticancer human tumor 931267-113-T-J1-PDC patient-derived colon adenocarcinoma cell line growth inhibition [KRAS2]
Details: for IC50: curve of first compound; for viability, T/C: stronger effect = lower value
In short: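 Combination screen of spheroid viability in tumor-cell co-cultures with endothelial (HUVEC) and mesenchymal stem cell stroma. Each agent was tested in half-log dilutions, topping at clinical Cmax or at 10 microM without a known Cmax.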

[1] = second compound 0.1 µM, first compound 0.01 µM
[2] = second compound 0.1 µM, first compound 0.0316 µM
[3] = second compound 0.1 µM, first compound 0.1 µM
[4] = second compound 0.1 µM, first compound 0.316 µM
[5] = second compound 0.1 µM, first compound 1 µM
[6] = second compound 0.1 µM, first compound 3.16 µM
[7] = second compound 0.316 µM, first compound 0.01 µM
[8] = second compound 0.316 µM, first compound 0.0316 µM
[9] = second compound 0.316 µM, first compound 0.1 µM
[10] = second compound 0.316 µM, first compound 0.316 µM
[11] = second compound 0.316 µM, first compound 1 µM
[12] = second compound 0.316 µM, first compound 3.16 µM
[13] = second compound 1 µM, first compound 0.01 µM
[14] = second compound 1 µM, first compound 0.0316 µM
[15] = second compound 1 µM, first compound 0.1 µM
[16] = second compound 1 µM, first compound 0.316 µM
[17] = second compound 1 µM, first compound 1 µM
[18] = second compound 1 µM, first compound 3.16 µM
[19] = second compound 3.16 µM, first compound 0.01 µM
[20] = second compound 3.16 µM, first compound 0.0316 µM
[21] = second compound 3.16 µM, first compound 0.1 µM
[22] = second compound 3.16 µM, first compound 0.316 µM
[23] = second compound 3.16 µM, first compound 1 µM
[24] = second compound 3.16 µM, first compound 3.16 µM
[25] = second compound 10 µM, first compound 0.01 µM
[26] = second compound 10 µM, first compound 0.0316 µM
[27] = second compound 10 µM, first compound 0.1 µM
[28] = second compound 10 µM, first compound 0.316 µM
[29] = second compound 10 µM, first compound 1 µM
[30] = second compound 10 µM, first compound 3.16 µM
[31] = second compound 0.1 µM, first compound 10 µM
[32] = second compound 0.316 µM, first compound 10 µM
[33] = second compound 1 µM, first compound 10 µM
[34] = second compound 3.16 µM, first compound 10 µM
[35] = second compound 10 µM, first compound 10 µM
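Note: compound exposure lasted 7 days before the readout.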
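Throughout, for viability, T/C: 100% = DMSO vehicle control viability.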

SMILES	IC50 (second compound 0.1 µM) [nM]	IC50 (second compound 0.316 µM) [nM]	IC50 (second compound 1 µM) [nM]	IC50 (second compound 3.16 µM) [nM]	IC50 (second compound 10 µM) [nM]	viability, T/C [2] [%]	viability, T/C [3] [%]	viability, T/C [4] [%]	viability, T/C [5] [%]	viability, T/C [6] [%]	viability, T/C [8] [%]	viability, T/C [9] [%]	viability, T/C [10] [%]	viability, T/C [11] [%]	viability, T/C [14] [%]	viability, T/C [15] [%]	viability, T/C [20] [%]	viability, T/C [21] [%]	viability, T/C [26] [%]	viability, T/C [27] [%]	also measured
CC1COCCN1c1cc(-c2ccnn2C)c2ccnc(-c3ccn[nH]3)c2n1 (stereo not given) + CNCc1ccccc1-c1csc(C(C)Nc2nc(C)nc3cc(OC)c(OC)cc23)c1	49.6	46.6	27.8	< 10	< 10	64.9	27.4	11.4	17.1	18	64.9	20.6	14.7	16.9	48.8	19.8	0.07	0.05	0.09	0.1	viability, T/C [1]: 87.4%; viability, T/C [7]: 80.2%; viability, T/C [12]: 15.3%; viability, T/C [13]: 58.3%; viability, T/C [16]: 7.5%; viability, T/C [17]: 10.8%; viability, T/C [18]: 6.12%; viability, T/C [19]: 0.07%; viability, T/C [22]: 0.04%; viability, T/C [23]: 0.05%; viability, T/C [24]: 0.14%; viability, T/C [25]: 0.16%; viability, T/C [28]: 0.1%; viability, T/C [29]: 0.11%; viability, T/C [30]: 1.06%
CC1OCC2(CCN(c3cnc(Sc4ccnc(N)c4Cl)c(N)n3)CC2)C1N (stereo not given) + CNCc1ccccc1-c1csc(C(C)Nc2nc(C)nc3cc(OC)c(OC)cc23)c1	> 10000	> 10000	31.6	< 31.6	< 31.6	96.8	70.7	66.5	68.3	61.1	88.6	89.3	72	63.2	51.3	44.8	0.09	0.09	0.12	0.19	viability, T/C [31]: 59.8%; viability, T/C [12]: 78.8%; viability, T/C [32]: 81.8%; viability, T/C [16]: 54.2%; viability, T/C [17]: 33.1%; viability, T/C [18]: 33.2%; viability, T/C [33]: 27.5%; viability, T/C [22]: 0.08%; viability, T/C [23]: 0.08%; viability, T/C [24]: 0.08%; viability, T/C [34]: 0.17%; viability, T/C [28]: 0.13%; viability, T/C [29]: 0.13%; viability, T/C [30]: 0.12%; viability, T/C [35]: 0.17%
Cn1nccc1Nc1nccc(-c2cc3c(s2)C(C)(C)N(CCN2CCOCC2)C3=O)n1 + CNCc1ccccc1-c1csc(C(C)Nc2nc(C)nc3cc(OC)c(OC)cc23)c1	323	433	88.4	< 31.6	< 31.6	73.6	71.3	44.5	34.1	6.18	76.4	75.4	60.6	21.4	56.5	51	0.1	0.09	0.11	0.13	viability, T/C [31]: 2.96%; viability, T/C [12]: 4.19%; viability, T/C [32]: 1.79%; viability, T/C [16]: 26.6%; viability, T/C [17]: 11.2%; viability, T/C [18]: 0.39%; viability, T/C [33]: 0.15%; viability, T/C [22]: 0.08%; viability, T/C [23]: 0.11%; viability, T/C [24]: 0.04%; viability, T/C [34]: 0.11%; viability, T/C [28]: 0.13%; viability, T/C [29]: 0.11%; viability, T/C [30]: 0.11%; viability, T/C [35]: 0.42%
CC(=O)OC12COC1CC(O)C1(C)C(=O)C(O)C3=C(C)C(OC(=O)C(O)C(NC(=O)OC(C)(C)C)c4ccccc4)CC(O)(C(OC(=O)c4ccccc4)C21)C3(C)C (stereo not given) + COc1cc2nc(C)nc(NC(C)c3cc(N)cc(C(F)(F)F)c3)c2cc1OC1CCOC1	> 3160	> 3160	> 3160	> 3160	> 3160	77.7	81.3	83.7	92.4	106	76.3	92	76.7	82.6	105	88.2	107	76.5	110	96.2	viability, T/C [1]: 84.9%; viability, T/C [7]: 88%; viability, T/C [12]: 72.1%; viability, T/C [13]: 95%; viability, T/C [16]: 88%; viability, T/C [17]: 96.7%; viability, T/C [18]: 56.9%; viability, T/C [19]: 90%; viability, T/C [22]: 83.9%; viability, T/C [23]: 83.8%; viability, T/C [24]: 84.9%; viability, T/C [25]: 98%; viability, T/C [28]: 84.3%; viability, T/C [29]: 72.5%; viability, T/C [30]: 92%
CN(C)C/C=C/C(=O)Nc1cc2c(Nc3ccc(F)c(Cl)c3)ncnc2cc1O[C@H]1CCOC1 + COc1cc2nc(C)nc(NC(C)c3cc(N)cc(C(F)(F)F)c3)c2cc1OC1CCOC1	> 100	> 100	> 100	> 100	> 100	103	116				85.2	93.5			100	94	97.2	108	102	83.7	viability, T/C (second compound 0.1 µM, first compound 0.000316 µM): 96.2%; viability, T/C (second compound 0.1 µM, first compound 0.001 µM): 92.8%; viability, T/C (second compound 0.1 µM, first compound 0.00316 µM): 75.7%; viability, T/C [1]: 87.5%; viability, T/C (second compound 0.316 µM, first compound 0.000316 µM): 81.8%; viability, T/C (second compound 0.316 µM, first compound 0.001 µM): 75%; viability, T/C (second compound 0.316 µM, first compound 0.00316 µM): 90.3%; viability, T/C [7]: 87.6%; viability, T/C (second compound 1 µM, first compound 0.000316 µM): 87.7%; viability, T/C (second compound 1 µM, first compound 0.001 µM): 92.5%; viability, T/C (second compound 1 µM, first compound 0.00316 µM): 104%; viability, T/C [13]: 89.8%; viability, T/C (second compound 3.16 µM, first compound 0.000316 µM): 72.8%; viability, T/C (second compound 3.16 µM, first compound 0.001 µM): 72.8%; viability, T/C (second compound 3.16 µM, first compound 0.00316 µM): 88.1%; viability, T/C [19]: 74.9%; viability, T/C (second compound 10 µM, first compound 0.000316 µM): 69.6%; viability, T/C (second compound 10 µM, first compound 0.001 µM): 78.8%; viability, T/C (second compound 10 µM, first compound 0.00316 µM): 77%; viability, T/C [25]: 88.6%
O=C(c1cc(Cc2n[nH]c(=O)c3ccccc23)ccc1F)N1CCN(C(=O)C2CC2)CC1 + COc1cc2nc(C)nc(NC(C)c3cc(N)cc(C(F)(F)F)c3)c2cc1OC1CCOC1	> 10000	> 10000	> 10000	> 10000	> 10000	78.7	81.4	85.7	87.7	94.6	85.1	99.7	88.2	70.9	89.6	92.1	107	87.5	101	112	viability, T/C [31]: 113%; viability, T/C [12]: 85.6%; viability, T/C [32]: 73%; viability, T/C [16]: 99.1%; viability, T/C [17]: 112%; viability, T/C [18]: 97.5%; viability, T/C [33]: 84.1%; viability, T/C [22]: 95.5%; viability, T/C [23]: 94.4%; viability, T/C [24]: 106%; viability, T/C [34]: 105%; viability, T/C [28]: 94.7%; viability, T/C [29]: 98.3%; viability, T/C [30]: 90.3%; viability, T/C [35]: 97.3%
